The source of these data is patent EP2108954A1, “A test system for detecting intracellular cyclic nucleotide level and methods and uses thereof” (Max-Planck-Gesellschaft zur Förderung der Wissenschaften …, priority 2008, dated 2009).

Each structure is given as a SMILES string.

The test system of the test is hHCN2. Description: Gs coupling test: hHCN2 current in HEK293 cells coexpressing ORs and hHCN2. Format: cell-based, human. The settings on record: 2 min 100 nM Etb; Or22a, Or83b and hHCN2 coexpressed. As for the experimental part: HEK293 cells were cultured as described by Wicher and colleagues (Wicher et al., J. Biol. Chem. 281, 3227-36 (2006)). In brief, HEK293 cells were cultured at a density of ∼2*10^4 per 35-mm dish and transfected with 1 µg pcDNA3-DOR22a-GFP and 1 µg pcDNA3-DOR83b-GFP (Neuhaus, et al., Nat. Neurosci. 8, 15-17 (2005); DNAs were a generous gift of Dr. E. Neuhaus and Dr. H. Hatt) using Roti-Fect transfection kit (Roth, Karlsruhe, Germany). In some experiments we transfected cells with pcDNA3-DOR22a-GFP or pcDNA3-DOR83b-GFP alone. We also examined the properties of DOR47a, which was cloned, using standard molecular biology methods into a pcDNA3.1(-) expression vector. To test for putative G-protein coupling, cells were transfected with the respective OR-DNA together with 1.5 µg hHCN2/pcDNA3 (provided by M. Biel, Munich, Germany), with 1 µg hKCNQ4/pcDNA3.1 or with 1 µg hCNGA2/pCMV6-XL4 (Origene, Rockville, MD, USA).
Ion currents in HEK293 cells were measured with the patch-clamp technology as described (Wicher et al, J. Biol. Chem. 281, 3227-36 (2006)). In brief, ion currents in HEK293 cells were measured at room temperature using whole-cell patch-clamp with appropriate compensation of series resistance and of capacitive currents. Additional experiments were performed in the outside-out configuration. […]

With `CCCC(=O)OCC` [Etb, ethyl butyrate], the “effect on hHCN2 current time course” value is listed as “accelerated the current time course”.
